Experimental findings from ChEMBL document CHEMBL1201862, “PubChem BioAssay data set” (2004) are described below.

Each structure is given as a SMILES string.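 Briefly, cells in 96-well plates were exposed to five compound concentrations for 48 h, and endpoints were estimated by linear interpolation. The concentration for 50% growth inhibition is given as GI50.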 Activity calls are given as the source filed them. Rule as the data show it: active = GI50 up to about 1.1 µM and inactive = higher.

Some test systems named below: U-251; HCC 2998; HCT-15; KM12; CAKI-1; RXF 393; 786-0; SR; OVCAR-5; UACC-257; NCI/ADR-RES; OVCAR-4; NCI-H522; EKVX; SK-MEL-2; TK-10; SN12C; SK-OV-3; SF-295; SF-539.
What all share (assay): inhibition of tumour cell growth, NCI panel, 48 h

Consider `CC[C@]12C=CCN3CC[C@@]4(c5cc(Br)c(OC)cc5N(C)[C@H]4[C@@](O)(C(=O)N[C@@H](Cc4ccc(O)cc4)C(=O)OC)[C@@H]1O)[C@@H]32`, for which the GI50 was 14.6 µM (inactive) in the experiment on U-251; 25.5 µM (inactive) in the experiment on HCC 2998; 23.3 µM in the experiment on HCT-15; 11.3 µM (inactive) in the experiment with KM12; 18.7 µM (inactive) in the experiment on CAKI-1; 17.6 µM (inactive) with RXF 393. For the same compound, the GI50 with 786-0 was 49.9 µM (inactive); with SR, 13.8 µM (inactive); in the experiment with OVCAR-5, 45.5 µM (inactive); in the experiment with UACC-257 it was 16.3 µM (inactive); in the experiment on NCI/ADR-RES, 20.7 µM (inactive); in the experiment on OVCAR-4, 14.7 µM (inactive). Moreover, the GI50 was 17.7 µM (inactive) with NCI-H522; 29.2 µM (inactive) in the experiment with EKVX; 20.1 µM (inactive) in the experiment on SK-MEL-2; 22.6 µM (inactive) with TK-10; 16.5 µM (inactive) in the experiment with SN12C; 74.5 µM (inactive) in the experiment on SK-OV-3. The GI50 was 19.3 µM (inactive) in the experiment on SF-295 and 19.7 µM (inactive) with SF-539.

With `O=C(Nc1cccc(-c2cn3ccccc3n2)c1)c1ccncc1`, the GI50 with U-251 was 48.2 µM (inactive); in the experiment with HCC 2998, 56.2 µM (inactive); with HCT-15 it was 24.2 µM; with KM12 it was 32.6 µM (inactive); in the experiment with CAKI-1 it was 31.3 µM (inactive); in the experiment on RXF 393, 64.4 µM (inactive). The GI50 is 64.4 µM (inactive) with 786-0; 24 µM (inactive) with SR; > 100 µM (inactive) in the experiment with OVCAR-5; 29.9 µM (inactive) with UACC-257; 21.7 µM (inactive) in the experiment with NCI/ADR-RES; 34.7 µM (inactive) in the experiment with OVCAR-4. Besides, the GI50 is 23.6 µM (inactive) in the experiment on NCI-H522; 60.1 µM (inactive) in the experiment with EKVX; 22.6 µM (inactive) in the experiment on SK-MEL-2; 56.9 µM (inactive) in the experiment on TK-10; 32.7 µM (inactive) in the experiment with SN12C; 70.8 µM (inactive) in the experiment on SK-OV-3. The GI50 with SF-295 is 40.7 µM (inactive); in the experiment on SF-539, 50.6 µM (inactive).

Take `CN1C(=O)C(O)C[C@@H]1c1ccccc1` (stereo not given in full): the GI50 is > 100 µM (inactive) with U-251; > 100 µM (inactive) in the experiment with HCC 2998; greater than 100 µM in the experiment on HCT-15; > 100 µM (inactive) with KM12; > 100 µM (inactive) in the experiment with CAKI-1; > 100 µM (inactive) in the experiment on RXF 393. Further, the GI50 in the experiment on 786-0, in the experiment with SR, in the experiment on OVCAR-5, with UACC-257, in the experiment on NCI/ADR-RES and in the experiment on OVCAR-4 was > 100 µM (inactive) throughout. For the same compound, the GI50 in the experiment with NCI-H522, in the experiment on EKVX, with SK-MEL-2, in the experiment on TK-10, in the experiment on SN12C and with SK-OV-3 was > 100 µM (inactive) in each case. In addition, the GI50 in the experiment on SF-295 and in the experiment on SF-539 was > 100 µM (inactive) throughout.

For `CCOP(=O)(OCC)C(Nc1ccc(F)cc1)c1cccc([N+](=O)[O-])c1` (stereo not given), the GI50 in the experiment on U-251 is > 100 µM (inactive); in the experiment on HCC 2998, 71.6 µM (inactive); in the experiment with HCT-15 it was 83.8 µM; in the experiment on KM12 it was 94 µM (inactive); with CAKI-1, > 100 µM (inactive); in the experiment with RXF 393, 54.3 µM (inactive). The GI50 in the experiment with 786-0 was > 10 µM (inactive); in the experiment with SR it was 93.5 µM (inactive); in the experiment with OVCAR-5 it was > 100 µM (inactive); in the experiment on UACC-257 it was > 100 µM (inactive); in the experiment with NCI/ADR-RES, 47.1 µM (inactive); with OVCAR-4, 57.4 µM (inactive). In addition, the GI50 was 63.1 µM (inactive) with NCI-H522; 90.4 µM (inactive) in the experiment with EKVX; 49.7 µM (inactive) in the experiment on SK-MEL-2; > 100 µM (inactive) with TK-10; > 100 µM (inactive) in the experiment on SN12C; > 100 µM (inactive) with SK-OV-3. Further, the GI50 with SF-295 and in the experiment on SF-539 was > 100 µM (inactive) throughout.
